From US20110039847A1, “AMIDE DERIVATIVES AS SIRTUIN MODULATORS” (Sirtris Pharmaceuticals, Inc, priority 2007, published 2011)

Molecular target: T1, SIRT1 (Homo sapiens, UniProt Q96EB6)
T1 sequence (Q96EB6 1-747): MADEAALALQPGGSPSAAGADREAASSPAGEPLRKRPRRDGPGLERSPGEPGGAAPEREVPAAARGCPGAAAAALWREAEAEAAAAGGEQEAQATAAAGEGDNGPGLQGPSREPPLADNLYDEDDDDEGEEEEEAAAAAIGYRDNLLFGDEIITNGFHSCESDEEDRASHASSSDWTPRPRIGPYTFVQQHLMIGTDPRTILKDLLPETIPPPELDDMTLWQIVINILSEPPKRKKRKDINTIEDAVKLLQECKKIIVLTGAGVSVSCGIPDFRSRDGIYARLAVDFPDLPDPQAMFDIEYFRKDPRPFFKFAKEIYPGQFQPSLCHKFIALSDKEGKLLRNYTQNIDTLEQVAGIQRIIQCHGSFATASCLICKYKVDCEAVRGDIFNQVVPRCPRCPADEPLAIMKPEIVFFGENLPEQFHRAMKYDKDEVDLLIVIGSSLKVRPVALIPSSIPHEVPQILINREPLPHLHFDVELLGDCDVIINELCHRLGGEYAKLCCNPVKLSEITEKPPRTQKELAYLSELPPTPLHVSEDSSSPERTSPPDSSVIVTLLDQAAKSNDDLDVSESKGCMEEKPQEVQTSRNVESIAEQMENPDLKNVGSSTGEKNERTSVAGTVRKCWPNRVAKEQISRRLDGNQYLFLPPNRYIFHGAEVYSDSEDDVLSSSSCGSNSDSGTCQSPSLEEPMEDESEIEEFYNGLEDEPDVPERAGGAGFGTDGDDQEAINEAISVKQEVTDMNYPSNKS
Assay: Mass spectrometry based SIRT1 deacetylation (activation) assay
Assay type: biochemical
Settings: 0.5 μM peptide substrate, 120 μM βNAD+, 10 nM SIRT1, 25 min at 25° C.; for Emax: 25 min, read-out: % Fold Act. (percent maximum fold activation)

Row | Compound | EC1.5 | Emax
1 | CCN(CCN(C)C)c1cc(C(=O)Nc2ccccc2C(=O)NC2CCN(C(=O)OC(C)(C)C)CC2)nc(-c2ccccc2)n1 [Compound 166, tert-butyl 4-(2-(6-((2-(dimethylamino)ethyl)(ethyl)amino)-2-phenylpyrimidine-4-carboxamido)benzamido)piperidine-1-carboxylate] | B (EC1.5>1 and ≦10 uM) | 150 to 300%
2 | CCN(CCN(C)C)c1cc(C(=O)Nc2ccccc2-c2nnc(-c3ccncc3)s2)nc(-c2ccccc2)n1 [Compound 82] | A (EC1.5≦1 uM) | ≥ 300%
3 | O=C(Nc1ccccc1-c1nnc(C(=O)N2CCOCC2)s1)c1cc(NC(CO)CO)nc(-c2ccccc2)n1 [Compound 90] | A (EC1.5≦1 uM) | ≥ 300%
4 | CCN(CCN(C)C)c1cc(C(=O)Nc2ccccc2C(=O)NC2CCN(C(=O)OC(C)(C)C)C2)nc(-c2ccccc2)n1 (centres unmarked) [Compound 173, tert-butyl 3-(2-(6-((2-(dimethylamino)ethyl)(ethyl)amino)-2-phenylpyrimidine-4-carboxamido)benzamido)pyrrolidine-1-carboxylate] | B (EC1.5>1 and ≦10 uM) | ≥ 300%
5 | CN1CCN(c2cc(C(=O)Nc3ccccc3-c3nncs3)nc(-c3ccccc3)n2)CC1=O [Compound 112] | A (EC1.5≦1 uM) | ≥ 300%
6 | CCN(CCN(C)C)c1cc(C(=O)Nc2ccccc2Br)nc(-c2ccccc2)n1 [Compound 159] | B (EC1.5>1 and ≦10 uM) | 150 to 300%
7 | CCN(CCN(C)C)c1cc(C(=O)Nc2ccccc2-c2cnc(-c3ccccc3)[nH]2)nc(-c2ccccc2)n1 [Compound 68] | A (EC1.5≦1 uM) | ≥ 300%
8 | CCN(CCN(C)C)c1cc(C(=O)Nc2ccccc2-c2ncc(-c3ccccc3)o2)nc(-c2ccccc2)c1 [Compound 34] | A (EC1.5≦1 uM) | ≥ 300%
9 | CCN(CCN(C)C)c1cc(C(=O)Nc2ccccc2C(=O)NC2CCC2)nc(-c2ccccc2)n1 [Compound 164, N-(2-(cyclobutylcarbamoyl)phenyl)-6-((2-(dimethylamino)ethyl)(ethyl)amino)-2-phenylpyrimidine-4-carboxamide] | A (EC1.5≦1 uM) | ≥ 300%
10 | CCN(CCN(C)C)c1cc(C(=O)Nc2ccccc2C(=O)N[C@@H]2CCCC[C@@H]2O)nc(-c2ccccc2)n1 [Compound 170, 6-((2-(dimethylamino)ethyl)(ethyl)amino)-N-(2-((1R,2S)-2-hydroxycyclohexylcarbamoyl)phenyl)-2-phenylpyrimidine-4-carboxamide] | A (EC1.5≦1 uM) | ≥ 300%
11 | CN(C)CCNc1cc(C(=O)Nc2ccccc2-c2ncc(C(C)(C)C)o2)nc(-c2ccccc2)c1 [Compound 31] | B (EC1.5>1 and ≦10 uM) | ≥ 300%
12 | CC(C)(C)c1cnc(-c2ccccc2NC(=O)c2cc(OC[C@@H](O)CO)cc(-c3ccccc3)n2)o1 [Compound 76] | B (EC1.5>1 and ≦10 uM) | ≥ 300%
13 | O=C(Nc1ccccc1-c1nncs1)c1cc(OCC(O)CO)nc(-c2ccccc2)n1 (centres unmarked) [Compound 111] | A (EC1.5≦1 uM) | ≥ 300%
14 | O=C(Nc1ccccc1-c1nnc(N2CCOCC2)s1)c1cc(NC(CO)CO)nc(-c2ccccc2)n1 [Compound 102] | A (EC1.5≦1 uM) | ≥ 300%
15 | O=C(Nc1ccccc1-c1nncs1)c1cc(NC(CO)CO)nc(-c2ccccc2)n1 [Compound 99] | A (EC1.5≦1 uM) | ≥ 300%
16 | CNCCN(C)c1cc(C(=O)Nc2ccccc2-c2nnc(-c3ccccc3)s2)nc(-c2ccccc2)c1 [Compound 44] | A (EC1.5≦1 uM) | ≥ 300%
17 | CCN(CCN(C)C)c1cc(C(=O)Nc2ccccc2-c2ncc(-c3ccccc3)o2)nc(-c2ccccc2)n1 [Compound 64] | A (EC1.5≦1 uM) | 150 to 300%
18 | CCN(CCN(C)C)c1cc(C(=O)Nc2ccccc2-c2nnc(C(=O)N3CCOCC3)s2)nc(-c2ccccc2)n1 [Compound 87] | A (EC1.5≦1 uM) | ≥ 300%
19 | CN(C)CCNc1cc(C(=O)Nc2ccccc2C(=O)Nc2ccccc2S(C)(=O)=O)nc(-c2ccccc2)n1 [Compound 163, 6-(2-(dimethylamino)ethylamino)-N-(2-(2-(methylsulfonyl)phenylcarbamoyl)phenyl)-2-phenylpyrimidine-4-carboxamide] | B (EC1.5>1 and ≦10 uM) | 150 to 300%
20 | CCN(CCN(C)C)c1cc(C(=O)Nc2ccccc2-c2nnc(NC(=O)N3CCOCC3)s2)nc(-c2ccccc2)n1 [Compound 113] | A (EC1.5≦1 uM) | ≥ 300%
21 | CCN(CCN(C)C)c1cc(C(=O)Nc2ccccc2C(=O)NC2CCCNC2)nc(-c2ccccc2)n1 (centres unmarked) [Compound 174, 6-((2-(dimethylamino)ethyl)(ethyl)amino)-2-phenyl-N-(2-(piperidin-3-ylcarbamoyl)phenyl)pyrimidine-4-carboxamide] | B (EC1.5>1 and ≦10 uM) | ≥ 300%
22 | CCN(CCOC)c1cc(C(=O)Nc2ccccc2-c2nnc(N3CCOCC3)s2)nc(-c2ccccc2)n1 [Compound 107] | A (EC1.5≦1 uM) | 150 to 300%
23 | CCN(CC)CCNc1cc(C(=O)Nc2ccccc2C(C)=O)nc(-c2ccccc2)n1 [Compound 135] | B (EC1.5>1 and ≦10 uM) | ≥ 300%

The remaining lines, values ahead:

Row | EC1.5 | Emax | Compound
24 | B (EC1.5>1 and ≦10 uM) | 150 to 300% | CN(C)CCNc1cc(C(=O)Nc2ccccc2C(=O)NCC[S+](C)[O-])nc(-c2ccccc2)n1 (centres unmarked) [Compound 152, 6-(2-(dimethylamino)ethylamino)-N-(2-(2-(methylsulfinyl)ethylcarbamoyl)phenyl)-2-phenylpyrimidine-4-carboxamide]
25 | A (EC1.5≦1 uM) | ≥ 300% | COC(=O)c1ccccc1NC(=O)c1cc(NCCN(C)C)nc(-c2ccccc2)n1 [Compound 5]
26 | B (EC1.5>1 and ≦10 uM) | 150 to 300% | CCCc1nnc(-c2ccccc2NC(=O)c2cc(NCCN(C)C)nc(-c3ccccc3)n2)s1 [Compound 54]
27 | B (EC1.5>1 and ≦10 uM) | 150 to 300% | CCc1nnc(-c2ccccc2NC(=O)c2cc(NCCN(C)C)nc(-c3ccccc3)n2)s1 [Compound 53]
28 | A (EC1.5≦1 uM) | ≥ 300% | CN(C)CCN(C)c1cc(C(=O)Nc2ccccc2-c2nncs2)nc(-c2ccccc2)n1 [Compound 27]
29 | A (EC1.5≦1 uM) | 150 to 300% | Cc1nnc(-c2ccccc2NC(=O)c2cc(NCCN(C)C)nc(-c3ccccc3)n2)s1 [Compound 21]
30 | B (EC1.5>1 and ≦10 uM) | ≥ 300% | CN(C)CCNc1cc(C(=O)Nc2ccccc2C(N)=O)nc(-c2ccccc2)n1 [Compound 3]
31 | B (EC1.5>1 and ≦10 uM) | 150 to 300% | CN(C)CCNc1cc(C(=O)Nc2ccccc2-c2ncc(C(C)(C)C)s2)nc(-c2ccccc2)n1 [Compound 37]
32 | A (EC1.5≦1 uM) | 150 to 300% | CCN(CCN(C)C)c1cc(C(=O)Nc2ccccc2-c2nnc(C(=O)NC)s2)nc(-c2ccccc2)n1 [Compound 86]
33 | C (EC1.5>10 uM) | < 150% | CCCCNC(=O)c1ccccc1NC(=O)c1cc(NCCN(C)C)nc(-c2ccccc2)n1 [Compound 123, N-(2-(butylcarbamoyl)phenyl)-6-(2-(dimethylamino)ethylamino)-2-phenylpyrimidine-4-carboxamide]
34 | B (EC1.5>1 and ≦10 uM) | ≥ 300% | CN(C)CCNc1cc(C(=O)Nc2ccccc2-c2ccco2)nc(-c2ccccc2)n1 [Compound 16]
35 | A (EC1.5≦1 uM) | ≥ 300% | CN(C)CCNc1cc(C(=O)Nc2ccccc2-c2nncs2)nc(-c2ccccc2)n1 [Compound 26]
36 | B (EC1.5>1 and ≦10 uM) | 150 to 300% | C/C(=N\O)c1ccccc1NC(=O)c1cc(NCCN(C)C)nc(-c2ccccc2)n1 [Compound 132]
37 | B (EC1.5>1 and ≦10 uM) | 150 to 300% | CN(C)CCNc1cc(C(=O)Nc2ccccc2-c2nnc(C3CCCC3)s2)nc(-c2ccccc2)n1 [Compound 49]
38 | A (EC1.5≦1 uM) | 150 to 300% | CCc1nnc(-c2ccccc2NC(=O)c2cc(N(CC)CCN(C)C)nc(-c3ccccc3)n2)s1 [Compound 55]
39 | A (EC1.5≦1 uM) | 150 to 300% | CCN(CCN(C)C)c1cc(C(=O)Nc2ccccc2-c2nnc(C(N)=O)s2)nc(-c2ccccc2)n1 [Compound 71]
40 | A (EC1.5≦1 uM) | ≥ 300% | CCCc1nnc(-c2ccccc2NC(=O)c2cc(N(CC)CCN(C)C)nc(-c3ccccc3)n2)s1 [Compound 79]
41 | B (EC1.5>1 and ≦10 uM) | 150 to 300% | CN(C)CCNc1cc(C(=O)Nc2ccccc2-c2ccncc2)nc(-c2ccccc2)n1 [Compound 10]
42 | B (EC1.5>1 and ≦10 uM) | ≥ 300% | Cc1nnc(-c2ccccc2NC(=O)c2cc(NCCN(C)C)nc(-c3ccccc3)n2)o1 [Compound 20]
43 | B (EC1.5>1 and ≦10 uM) | ≥ 300% | Cc1cnc(-c2ccccc2NC(=O)c2cc(NCCN(C)C)nc(-c3ccccc3)n2)s1 [Compound 22]
